According to ChEMBL document CHEMBL6087402, “Design, synthesis, and in vitro and in vivo biological evaluation of dihydroartemisinin derivatives as potent anti-cancer agents with ferroptosis-inducing and apoptosis-activating properties” (Eur J Med Chem, 2025):
Activity calls are given as the source filed them. No cut-off for these calls is given here.

Tests used:
HCT-116 [1] = test: Induction of apoptosis in human HCT-116 cells assessed as viable cells at 0.3 uM incubated for 72 hrs by Annexin V-FITC/PI staining based flow cytometry (reference value: 97.1 %); format: functional; conditions: read-out: Activity
HCT-116 [2] = test: Induction of apoptosis in human HCT-116 cells assessed as increase in p38 level upto 3 uM incubated for 72 hrs by Western blot analysis; format: functional, cell-based
HCT-116 [3] = test: Antitumor activity against human HCT-116 cells xenografted in mouse assessed as reduction in cellular atypia at 50 mg/kg, ip administered once in every 2 days for 21 days by H and E staining based analysis; format: functional, organism-based; conditions: time 21.0 day
HCT-116 [4] = test: Inhibition of colony formation in human HCT-116 cells at 3 uM incubated for 7 to 12 days by crystal violet staining based analysis relative to control; format: functional; conditions: time 7-12 day
HCT-116 [5] = test: Induction of apoptosis in human HCT-116 cells assessed as late apoptotic cells at 0.3 uM incubated for 72 hrs by Annexin V-FITC/PI staining based flow cytometry (reference value: 0.98 %); format: functional
HCT-116 [6] = test: Induction of ferroptosis in human HCT-116 cells assessed as reduction in GPX4 level upto 3 uM incubated for 72 hrs by Western blot analysis; format: functional, cell-based
HCT-116 [7] = test: Induction of apoptosis in human HCT-116 cells assessed as late apoptotic cells at 0.03 uM incubated for 72 hrs by Annexin V-FITC/PI staining based flow cytometry (reference value: 0.98 %); format: functional
[8] = Toxicity in mouse xenografted with human HCT-116 cells assessed as body weight change at 50 mg/kg, ip administered once in every 2 days for 21 days; format: organism-based; conditions: in vivo, 504 h, time 21 day
[9] = Selectivity index, ratio of IC50 for human L02 cells to IC50 for human Bel-7402 cells; format: toxicity; conditions: L02 cells versus Bel-7402 cells, read-out: Ratio IC50
HCT-116 [10] = test: Induction of cell cycle arrest in human HCT-116 cells assessed as accumulation at G0/G1 phase at 0.3 uM incubated for 72 hrs by PI staining based flow cytometry (reference value: 80.71 %); format: functional
HCT-116 [11] = test: Antitumor activity against human HCT-116 cells xenografted in mouse assessed as reduction in tumor cell mitotic figures at 50 mg/kg, ip administered once in every 2 days for 21 days by H and E staining based analysis; format: functional, organism-based; conditions: time 21.0 day
HCT-116 [12] = test: Induction of apoptosis in human HCT-116 cells assessed as late apoptotic cells at 3 uM incubated for 72 hrs by Annexin V-FITC/PI staining based flow cytometry (reference value: 0.98 %); format: functional
HCT-116 [13] = test: Induction of apoptosis in human HCT-116 cells assessed as viable cells at 0.03 uM incubated for 72 hrs by Annexin V-FITC/PI staining based flow cytometry (reference value: 97.1 %); format: functional; conditions: read-out: Activity
HCT-116 [14] = test: Induction of cell cycle arrest in human HCT-116 cells at G2/M phase assessed as increase in p53 level incubated for 72 hrs by Western blot analysis; format: functional, cell-based; conditions: dose <= 3.0 µM
HCT-116 [15] = test: Induction of cell cycle arrest in human HCT-116 cells assessed as accumulation at S phase at 0.3 uM incubated for 72 hrs by PI staining based flow cytometry (reference value: 23.49 %); format: functional
HCT-116 [16] = test: Induction of apoptosis in human HCT-116 cells assessed as increase in cleaved caspase-3 level upto 3 uM incubated for 72 hrs by Western blot analysis; format: functional, cell-based
HCT-116 [17] = test: Induction of lipid peroxidation in human HCT-116 cells upto 3 uM incubated for 24 hrs by confocal fluorescence microscopy; format: functional, cell-based
HCT-116 [18] = test: Induction of apoptosis in human HCT-116 cells assessed as early apoptotic cells at 0.03 uM incubated for 72 hrs by Annexin V-FITC/PI staining based flow cytometry (reference value: 1.55 %); format: functional
HCT-116 [19] = test: Depletion of GSH in human HCT-116 cells assessed as reduction in GSH/GSSG ratio upto 3 uM incubated for 24 hrs; format: functional, cell-based
HCT-116 [20] = test: Induction of intracellular ROS level in human HCT-116 cells upto 3 uM incubated for 24 hrs by DCFH-DA dye based analysis; format: functional, cell-based
HCT-116 [21] = test: Induction of mitochondrial membrane potential loss in human HCT-116 cells assessed as increase in green fluorescence incubated upto 3 uM by JC-1 dye based analysis; format: functional, cell-based
[22] = Toxicity in BALB/c mouse assessed as apparent damage in liver at 100 mg/kg, ip administered continuously for 7 days by H and E staining based analysis; format: organism-based; conditions: in vivo, 168 h, time 7 day
HCT-116 [23] = test: Induction of oxidative stress in human HCT-116 cells assessed as increase in MDA level incubated for 24 hrs; format: functional, cell-based; conditions: dose <= 3.0 µM
[24] = Toxicity in BALB/c mouse assessed as loss of appetite at 100 mg/kg, ip administered continuously for 7 days; format: organism-based; conditions: in vivo, 168 h, time 7 day
HCT-116 [25] = test: Anti-proliferative activity against human HCT-116 cells incubated for 72 hrs by MTT assay; format: functional, cell-based; conditions: HCT-116, 72 h
HCT-116 [26] = test: Induction of apoptosis in human HCT-116 cells assessed as necrotic cells at 3 uM incubated for 72 hrs by Annexin V-FITC/PI staining based flow cytometry (reference value: 0.33 %); format: functional
[27] = Toxicity in BALB/c mouse assessed as difficulty in breathing at 100 mg/kg, ip administered continuously for 7 days; format: organism-based; conditions: in vivo, 168 h, time 7 day
HCT-116 [28] = test: Induction of cell cycle arrest in human HCT-116 cells assessed as accumulation at S phase at 0.03 uM incubated for 72 hrs by PI staining based flow cytometry (reference value: 23.49 %); format: functional
[29] = Selectivity index, ratio of IC50 for human L02 cells to IC50 for human HCT-116 cells; format: toxicity; conditions: L02 cells versus HCT-116 cells, read-out: Ratio IC50
HCT-116 [30] = test: Induction of apoptosis in human HCT-116 cells assessed as increase in JNK level upto 3 uM incubated for 72 hrs by Western blot analysis; format: functional, cell-based
HCT-116 [31] = test: Induction of apoptosis in human HCT-116 cells assessed as viable cells at 3 uM incubated for 72 hrs by Annexin V-FITC/PI staining based flow cytometry (reference value: 97.1 %); format: functional; conditions: read-out: Activity
[32] = Anti-proliferative activity against human L02 cells incubated for 72 hrs by MTT assay; format: toxicity, cell-based
[33] = Toxicity in BALB/c mouse assessed as decrease in body weight at 100 mg/kg, ip administered continuously for 7 days; format: organism-based; conditions: in vivo, 168 h, time 7 day
[34] = Toxicity in BALB/c mouse assessed as toxic effect upto 100 mg/kg, ip administered continuously for 7 days; format: organism-based; conditions: in vivo, 168 h, time 7 day
HCT-116 [35] = test: Induction of ferroptosis in human HCT-116 cells incubated for 72 hrs in presence of Fer-1 by MTT assay; format: functional, cell-based
HCT-116 [36] = test: Induction of apoptosis in human HCT-116 cells in presence of Z-VAD-FMK; format: functional, cell-based
HCT-116 [37] = test: Induction of apoptosis in human HCT-116 cells assessed as early apoptotic cells at 3 uM incubated for 72 hrs by Annexin V-FITC/PI staining based flow cytometry (reference value: 1.55 %); format: functional
[38] = Toxicity in BALB/c mouse assessed as apparent damage in heart at 100 mg/kg, ip administered continuously for 7 days by H and E staining based analysis; format: organism-based; conditions: in vivo, 168 h, time 7 day

SMILES: C[C@@H]1CC[C@H]2[C@@H](C)C(OC(=O)Nc3ccc(Cl)cc3)O[C@@H]3O[C@@]4(C)CC[C@H]1[C@]32OO4 (stereo partly drawn)
- viability at 0.3 µM (HCT-116 [1]): 81.9%
- Activity (HCT-116 [2]): Active
- Activity (HCT-116 [3]): Active
- inhibition at 3 µM (HCT-116 [4]): 62.1%
- Activity (HCT-116 [5]): 8.21%
- Activity (HCT-116 [6]): Active
- Activity (HCT-116 [7]): 2.4%
- Activity [8]: Non-toxic
- selectivity ratio [9]: 2
- Activity (HCT-116 [10]): 37.62%
- Activity (HCT-116 [11]): Active
- Activity (HCT-116 [12]): 26.2%
- viability at 0.03 µM (HCT-116 [13]): 93.3%
- Activity (HCT-116 [14]): Dose-dependent-effect
- Activity (HCT-116 [15]): 24.55%
- Activity (HCT-116 [16]): Active
- Activity (HCT-116 [17]): Active
- Activity (HCT-116 [18]): 4.11%
- Activity (HCT-116 [19]): Active
- Activity (HCT-116 [20]): Active
- Activity (HCT-116 [21]): Active
- Activity [22]: Non-toxic
- Activity (HCT-116 [23]): Dose-dependent-effect
- Activity [24]: Non-toxic
- IC50 (HCT-116 [25]): 0.31 µM
- Activity (HCT-116 [26]): 0.026%
- Activity [27]: Non-toxic
- Activity (HCT-116 [28]): 25.54%
- selectivity ratio [29]: 54.1
- Activity (HCT-116 [30]): Active
- viability at 3 µM (HCT-116 [31]): 56.7%
- IC50 at 72 h [32]: 16.8 µM
- Activity [33]: Non-toxic
- Activity [34]: Non-toxic
- Activity (HCT-116 [35]): inactive
- Activity (HCT-116 [36]): inactive
- Activity (HCT-116 [37]): 17%
- Activity [38]: Non-toxic
